Measured values: patent US11000033B2, “Ketone or oxime compound, and herbicide” (NISSAN CHEMICAL CORPORATION, priority 2014, dated 2021)

Tests used:
Type in all cases: in vivo
Scirpus juncoides = assay: Test Example 1: herbicidal activity, application before weed generation in submerged conditions (symbol B); settings: application herbicide amount 320 g/ha
How it was run: (§1)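 Flooded alluvial soil (4 cm water) was mixed-sown with the three weed species, and 2.5-leaf rice seedlings were transplanted. On sowing day, a water-diluted emulsion at a predetermined rate was applied to the water surface. After 3 weeks in a 25–30 °C greenhouse, effect was scored 0–5.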

Monochoria vaginalis = assay: Test Example 1: herbicidal activity, application before weed generation in submerged conditions (symbol C); settings: application herbicide amount 320 g/ha
How it was run: as §1

Leptochloa chinensis = assay: Test Example 3: herbicidal effect by foliage application, Wagner pot (symbol D); settings: application herbicide amount 320 g/ha
How it was run: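 Alluvial soil was flooded to a depth of 0.1–0.5 cm, seeded with the weeds and rice, and kept in a greenhouse at 25–30 °C. After 14 days of growth, the foliage received a small-sprayer application of emulsion diluted to the intended rate; injury was rated at 3 weeks.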

Setaria viridis [1] = assay: Test Example 4: herbicidal effect by soil treatment (symbol G); settings: for G: Setaria viridis, herbicidal effect grade: 320 g/ha
How it was run: (§2)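 Seeds were sown in sterilized diluvial soil, covered with about 1.5 cm of soil, and the soil surface was sprayed with a water-diluted emulsion of the compound at a predetermined rate. Plants grew in a greenhouse at 25° C. to 30° C.; effects were scored visually 3 weeks after application.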

[2] = tested on: Echinochloa crus-galli var. crus-galli; assay: Test Example 4: herbicidal effect by soil treatment (symbol H); settings: for H: Echinochloa crus-galli var. crus-galli, herbicidal effect grade: 320 g/ha
How it was run: as §2

Lolium multiflorum Lam. = assay: Test Example 4: herbicidal effect by soil treatment (symbol K); settings: for K: Lolium multiflorum Lam., herbicidal effect grade: 320 g/ha
How it was run: as §2

Apera spica-venti = assay: Test Example 4: herbicidal effect by soil treatment (symbol L); settings: for L: Apera spica-venti, herbicidal effect grade: 320 g/ha
How it was run: as §2

Amaranthus retroflexus = assay: Test Example 4: herbicidal effect by soil treatment (symbol N); settings: for N: Amaranthus retroflexus, herbicidal effect grade: 320 g/ha
How it was run: as §2

Stellaria media [3] = assay: Test Example 4: herbicidal effect by soil treatment (symbol P); settings: for P: Stellaria media, herbicidal effect grade: 320 g/ha
How it was run: as §2

Galium spurium = assay: Test Example 4: herbicidal effect by soil treatment (symbol Q); settings: for Q: Galium spurium, herbicidal effect grade: 320 g/ha
How it was run: as §2

corn = assay: Test Example 4: effect on crop by soil treatment (symbol c); settings: for c: corn, effect grade on crop: 320 g/ha
How it was run: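 Grown at 25° C. to 30° C. in a greenhouse, the crops came from seed sown spot-wise in sterilized diluvial soil under roughly 1.5 cm of covering soil.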

rapeseed [4] = assay: Test Example 4: effect on crop by soil treatment (symbol g); settings: for g: rapeseed, effect grade on crop: 320 g/ha
How it was run: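 The test used sterilized diluvial soil. Seed was set down in spots and overlaid with about 1.5 cm of soil before growth in a greenhouse kept at 25° C. to 30° C.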

Setaria viridis [5] = assay: Test Example 5: herbicidal effect by foliage application, plastic box (symbol G); settings: 320 g/ha, 3 weeks after application
How it was run: (§3)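 Effect is rated 3 weeks after a foliar spray of water-diluted emulsion concentrate at a predetermined herbicide amount. Plants had grown 14 days in a 25° C. to 30° C. greenhouse from seed in sterilized diluvial soil.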

[6] = tested on: Echinochloa crus-galli var. crus-galli; assay: Test Example 5: herbicidal effect by foliage application, plastic box (symbol H); settings: 320 g/ha, 3 weeks after application
How it was run: as §3

Alopecurus myosuroides = assay: Test Example 5: herbicidal effect by foliage application, plastic box (symbol J); settings: 320 g/ha, 3 weeks after application
How it was run: as §3

Stellaria media [7] = assay: Test Example 5: herbicidal effect by foliage application, plastic box (symbol P); settings: 320 g/ha, 3 weeks after application
How it was run: as §3

wheat = assay: Test Example 5: effect on crop by foliage application, plastic box (symbol e); settings: 320 g/ha, 3 weeks after application
How it was run: (§4)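 Crop seed is sown alongside grass and broadleaf weed species in spots in sterilized diluvial soil, then covered to a depth of about 1.5 cm. Plants grow in a greenhouse kept at 25° C. to 30° C.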

rapeseed [8] = assay: Test Example 5: effect on crop by foliage application, plastic box (symbol g); settings: 320 g/ha, 3 weeks after application
How it was run: as §4

[9] = application herbicide amount 320 g/ha

Compound	Herbicidal effect grade, B: Scirpus juncoides (Scirpus juncoides)	Herbicidal effect grade, C: Monochoria vaginalis (Monochoria vaginalis)	herbicidal effect on D (Leptochloa chinensis), grade 0-5 (Leptochloa chinensis)	G: Setaria viridis, herbicidal effect grade (Setaria viridis [1])	H: Echinochloa crus-galli var. crus-galli, herbicidal effect grade [2]	K: Lolium multiflorum Lam., herbicidal effect grade (Lolium multiflorum Lam.)	L: Apera spica-venti, herbicidal effect grade (Apera spica-venti)	N: Amaranthus retroflexus, herbicidal effect grade (Amaranthus retroflexus)	P: Stellaria media, herbicidal effect grade (Stellaria media [3])	Q: Galium spurium, herbicidal effect grade (Galium spurium)	c: corn, effect grade on crop (corn)	g: rapeseed, effect grade on crop (rapeseed [4])	G: Setaria viridis, herbicidal effect (criteria 0-5) (Setaria viridis [5])	H: Echinochloa crus-galli var. crus-galli, herbicidal effect (criteria 0-5) [6]	J: Alopecurus myosuroides, herbicidal effect (criteria 0-5) (Alopecurus myosuroides)	P: Stellaria media, herbicidal effect (criteria 0-5) (Stellaria media [7])	e: wheat, effect on crop (criteria 0-5) (wheat)	g: rapeseed, effect on crop (criteria 0-5) (rapeseed [8])	also measured
CON=C(C)CC1CC(OC(=O)COc2cccc(OC)c2)=C(c2c(C)cc(C)cc2C)C1=O (stereo not drawn) [1-068]	4 (Herbicidal ratio of 70% or higher and lower than 90%)	3 (Herbicidal ratio of 40% or higher and lower than 70%)	5 (Herbicidal ratio of 90% or more (almost completely withered))																G (Setaria viridis) herbicidal effect grade (Setaria viridis [1]; [9]): 5 (Herbicidal ratio of 90% or more (almost completely withered)); H (Echinochloa crus-galli var. crus-galli) herbicidal effect grade [2, 9]: 5 (Herbicidal ratio of 90% or more (almost completely withered)); K (Lolium multiflorum Lam.) herbicidal effect grade (Lolium multiflorum Lam.; [9]): 5 (Herbicidal ratio of 90% or more (almost completely withered)); L (Apera spica-venti) herbicidal effect grade (Apera spica-venti; [9]): 5 (Herbicidal ratio of 90% or more (almost completely withered)); N (Amaranthus retroflexus) herbicidal effect grade (Amaranthus retroflexus; [9]): 4 (Herbicidal ratio of 70% or higher and lower than 90%); P (Stellaria media) herbicidal effect grade (Stellaria media [3]; [9]): 0 (Herbicidal ratio of 5% or lower (almost no effect)); Q (Galium spurium) herbicidal effect grade (Galium spurium; [9]): 0 (Herbicidal ratio of 5% or lower (almost no effect)); c (corn) effect on crop grade (corn; [9]): 5 (Herbicidal ratio of 90% or more (almost completely withered)); g (rapeseed) effect on crop grade (rapeseed [4]; [9]): 4 (Herbicidal ratio of 70% or higher and lower than 90%); G: Setaria viridis, herbicidal effect grade (Setaria viridis [5]): 5 (Herbicidal ratio of 90% or more (almost completely withered)); H: Echinochloa crus-galli var. crus-galli, herbicidal effect grade [6]: 5 (Herbicidal ratio of 90% or more (almost completely withered)); J: Alopecurus myosuroides, herbicidal effect grade (Alopecurus myosuroides): 5 (Herbicidal ratio of 90% or more (almost completely withered)); P: Stellaria media, herbicidal effect grade (Stellaria media [7]): 3 (Herbicidal ratio of 40% or higher and lower than 70%); e: wheat, effect on crop grade (wheat): 5 (Herbicidal ratio of 90% or more (almost completely withered)); g: rapeseed, effect on crop grade (rapeseed [8]): 4 (Herbicidal ratio of 70% or higher and lower than 90%)
CON=C(C)CC1CC(OC(=O)C=Cc2ccco2)=C(c2c(C)cc(C)cc2C)C1=O (stereo not drawn) [1-091]	5 (Herbicidal ratio of 90% or more (almost completely withered))	0 (Herbicidal ratio of 5% or lower (almost no effect))	5 (Herbicidal ratio of 90% or more (almost completely withered))	5 (Herbicidal ratio of 90% or more (almost completely withered))	5 (Herbicidal ratio of 90% or more (almost completely withered))	5 (Herbicidal ratio of 90% or more (almost completely withered))	5 (Herbicidal ratio of 90% or more (almost completely withered))	0 (Herbicidal ratio of 5% or lower (almost no effect))	0 (Herbicidal ratio of 5% or lower (almost no effect))	0 (Herbicidal ratio of 5% or lower (almost no effect))	5 (Herbicidal ratio of 90% or more (almost completely withered))	3 (Herbicidal ratio of 40% or higher and lower than 70%)	5 (Herbicidal ratio of 90% or more (almost completely withered))	5 (Herbicidal ratio of 90% or more (almost completely withered))	5 (Herbicidal ratio of 90% or more (almost completely withered))	0 (Herbicidal ratio of 5% or lower (almost no effect))	5 (Herbicidal ratio of 90% or more (almost completely withered))	4 (Herbicidal ratio of 70% or higher and lower than 90%)	
CC#CC(=O)OC1=C(c2c(C)cc(C)cc2C)C(=O)C(CC(C)=NOC)C1 (stereo not drawn) [1-095]	5 (Herbicidal ratio of 90% or more (almost completely withered))	2 (Herbicidal ratio of 20% or higher and lower than 40%)	5 (Herbicidal ratio of 90% or more (almost completely withered))	5 (Herbicidal ratio of 90% or more (almost completely withered))	5 (Herbicidal ratio of 90% or more (almost completely withered))	5 (Herbicidal ratio of 90% or more (almost completely withered))	5 (Herbicidal ratio of 90% or more (almost completely withered))	4 (Herbicidal ratio of 70% or higher and lower than 90%)	0 (Herbicidal ratio of 5% or lower (almost no effect))	0 (Herbicidal ratio of 5% or lower (almost no effect))	5 (Herbicidal ratio of 90% or more (almost completely withered))	4 (Herbicidal ratio of 70% or higher and lower than 90%)	5 (Herbicidal ratio of 90% or more (almost completely withered))	5 (Herbicidal ratio of 90% or more (almost completely withered))	5 (Herbicidal ratio of 90% or more (almost completely withered))	2 (Herbicidal ratio of 20% or higher and lower than 40%)	5 (Herbicidal ratio of 90% or more (almost completely withered))	4 (Herbicidal ratio of 70% or higher and lower than 90%)	
